Laboratory results reported in patent publication US20240238281A1, “PIPERAZINE DERIVATIVES AND APPLICATION THEREOF” (priority 2021, published 2024).
Read-outs that look alike come from different tables or passages of the source.

Tests used:
[1] = biological target: T1, MC1R (Homo sapiens, UniProt Q01726); assay: In vitro activity of MCR receptors, intracellular cAMP signal (HEK293T/MCR cell line), MC1R; type: cell-based; conditions: cAMP, HEK293T/MCR cell line; read-out: MC1R EC50
T1 construct: expressed in transfected cells
T1 sequence (Q01726 whole entry): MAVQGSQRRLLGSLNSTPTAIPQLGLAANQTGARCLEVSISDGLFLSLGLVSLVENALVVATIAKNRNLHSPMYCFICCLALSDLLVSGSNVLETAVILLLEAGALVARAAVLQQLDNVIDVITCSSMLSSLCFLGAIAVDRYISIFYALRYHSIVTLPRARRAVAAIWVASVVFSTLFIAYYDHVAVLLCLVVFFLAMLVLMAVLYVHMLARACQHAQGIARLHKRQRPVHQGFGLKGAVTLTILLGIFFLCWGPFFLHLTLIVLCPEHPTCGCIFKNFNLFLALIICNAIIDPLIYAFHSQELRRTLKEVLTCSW
Protocol: (§1) Test purpose: to evaluate the agonistic effect of the compound on MCRs by detecting intracellular cAMP signal changes.
(§2) Cells were resuspended with 1×PBS+500 μM IBMX. 10 μL of the cell suspension was added into a 384-well plate to be tested, and the cell concentration was adjusted to 1×10^4 cells per well for later use. A pre-prepared solution of the compound to be tested was added, and dimethyl sulfoxide of the same volume was added to blank control wells. The test plate was centrifuged at 300 rpm for 1 minute, incubated at 37° C. for 30 minutes, and added with 5 μL of cAMP-d2 and 5 μL of a CAMP-cry antibody detection reagent. The test plate was centrifuged at 300 rpm for 1 minute, and incubated at room temperature for 60 minutes.

[2] = Pharmacokinetic parameters in rat plasma; type: in vivo, SD rats; conditions: SD
Protocol: 4 healthy SD rats of 6-9 weeks old were selected and randomly divided into two groups, 2 rats in each group. One group was administered with the test compound via intravenous injection, with 5% DMSO+95% (a 10% HP-β-CD aqueous solution) as a solvent, and the other group was administered with the test compound by gavage, with a 50 mM citric acid buffer solution at pH=5 as a solvent. Plasma samples were collected from animals in both intravenous and intragastric groups at 0.083 hour, 0.25 hour, 0.5 hour, 1.0 hour, 2.0 hours, 4.0 hours, 6.0 hours, 8.0 hours and 24 hours after administration, respectively. Quantitative analysis of all biological samples was performed using an LC-MS/MS method, with WinNonlin™ Version 6.3 (Pharsight, Mountain View, CA) pharmacokinetic software, to calculate relevant pharmacokinetic parameters using a […] model linear logarithmic trapezoid method. AUCo-last represented an area under a plasma concentration time curve from a time point zero to a last time point where the concentration can be detected; p.o. represented oral administration; i.v. represented intravenous injection; T1/2 represented the half life; CL represented the clearance rate; Vd represented the apparent distribution volume; AUC0-last represented the area under the curve; Cmax represented the peak concentration; Tmax represented the peak time; and F % represented oral bioavailability.

[3] = biological target: T2, MC4R (Homo sapiens, UniProt P32245); assay: In vitro activity of MCR receptors, intracellular cAMP signal (HEK293T/MCR cell line), MC4R; type: cell-based; conditions: cAMP, HEK293T/MCR cell line; read-out: MC4R EC50
T2 construct: expressed in transfected cells
T2 sequence (P32245 whole entry): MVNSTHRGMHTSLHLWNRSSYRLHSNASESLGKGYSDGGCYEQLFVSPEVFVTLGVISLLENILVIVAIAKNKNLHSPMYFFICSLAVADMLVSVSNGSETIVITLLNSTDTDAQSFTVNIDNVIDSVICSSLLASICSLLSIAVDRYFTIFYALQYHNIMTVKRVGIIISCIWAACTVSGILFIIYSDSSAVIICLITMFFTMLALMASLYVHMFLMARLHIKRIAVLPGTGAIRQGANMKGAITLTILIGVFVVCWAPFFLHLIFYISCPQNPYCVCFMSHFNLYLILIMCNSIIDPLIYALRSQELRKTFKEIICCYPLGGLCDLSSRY
Protocol: as §1
as §2, with “minutes. The test plate was placed in the Envision multifunctional microplate reader for reading, with a detection wavelength of 665/615 nm.” for “minutes.”

[4] = Drug concentration in brain tissues of rats, oral gavage; type: in vivo; conditions: SD, rat, p.o. 20 mg/kg
Protocol: 3.2 6 healthy SD rats of 6-9 weeks old were selected, and the test compound was administered by oral gavage (with a solvent of 50 mM citrate buffer solution, pH=5). Two animals were randomly selected at 0.5 hour, 1 hour and 4 hours after administration respectively, and plasma and brain tissue samples were collected for quantitative analysis of all biological samples using the LC-MS/MS method.

[5] = Drug concentration in brain tissues of rats, intravenous injection; type: in vivo, SD rats; conditions: rat, i.v. 2 mg/kg
Protocol: 3.1 6 healthy SD rats of 6-9 weeks old were selected, and the test compound was administered via intravenous injection. Two animals were randomly selected at 0.5 hour, 2 hours and 4 hours after administration respectively, and plasma and brain tissue samples were collected, and the quantitative assay of all biological samples was performed using the LC-MS/MS method.

[6] = biological target: T3, MC5R (Homo sapiens, UniProt P33032); assay: In vitro activity of MCR receptors, intracellular cAMP signal (HEK293T/MCR cell line), MC5R; type: cell-based; conditions: cAMP, HEK293T/MCR cell line; read-out: MC5R EC50
T3 construct: expressed in transfected cells
T3 sequence (P33032 whole entry): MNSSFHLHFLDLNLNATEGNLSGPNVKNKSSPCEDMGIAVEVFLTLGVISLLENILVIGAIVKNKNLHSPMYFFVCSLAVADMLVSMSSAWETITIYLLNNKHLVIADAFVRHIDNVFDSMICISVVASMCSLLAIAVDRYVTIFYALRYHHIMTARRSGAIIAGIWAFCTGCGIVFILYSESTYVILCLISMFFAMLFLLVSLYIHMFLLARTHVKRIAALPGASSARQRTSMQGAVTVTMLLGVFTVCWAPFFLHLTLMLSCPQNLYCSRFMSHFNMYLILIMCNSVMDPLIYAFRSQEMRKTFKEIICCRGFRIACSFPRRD
Protocol: as §1
as §2, with “minutes. The test plate was placed in the Envision multifunctional microplate reader for reading, with a detection wavelength of 665/615 nm.” for “minutes.”

EC50 [1]: 459 nM | AUC(0-t) ([2]; iv, i.v. 2 mg/kg): 0.897 µM·h | Vd ([2]; iv, i.v. 2 mg/kg): 8 L/kg | clearance ([2]; iv, i.v. 2 mg/kg): 73 mL/min/kg | half-life ([2]; iv, i.v. 2 mg/kg): 1.5 h | bioavailability ([2]; p.o. 5 mg/kg, oral bioavailability): 37% | AUC(0-t) ([2]; po, p.o. 5 mg/kg): 0.796 µM·h | Cmax ([2]; po, p.o. 5 mg/kg): 195 nM | Tmax ([2]; po, p.o. 5 mg/kg): 1 h | EC50 [3]: 12 nM | concentration at 0.5 h ([4]; brain, 0.5 hour, read-out: Brain drug concentration): 8600 nM | concentration at 1 h ([4]; brain, 1 hour, read-out: Brain drug concentration): 9680 nM | concentration at 4 h ([4]; brain, 4 hours, read-out: Brain drug concentration): 11400 nM | Kp uu at 0.5 h ([4]; brain/plasma, 0.5 hour): 1.5 | Kp at 0.5 h ([4]; brain/plasma, 0.5 hour, read-out: Brain-to-blood ratio): 11 | Kp uu at 1 h ([4]; brain/plasma, 1 hour): 1.5 | Kp at 1 h ([4]; brain/plasma, 1 hour, read-out: Brain-to-blood ratio): 10.8 | Kp uu at 4 h ([4]; brain/plasma, 4 hours): 1.3 | Kp at 4 h ([4]; brain/plasma, 4 hours, read-out: Brain-to-blood ratio): 9.5 | concentration at 0.5 h ([4]; plasma, 0.5 hour, read-out: Plasma drug concentration): 783 nM | concentration at 1 h ([4]; plasma, 1 hour, read-out: Plasma drug concentration): 899 nM | concentration at 4 h ([4]; plasma, 4 hours, read-out: Plasma drug concentration): 1200 nM | concentration at 0.5 h ([5]; SD, brain, iv, 0.5 hour, read-out: Brain drug concentration): 2830 nM | concentration at 2 h ([5]; SD, brain, iv, 2 hours, read-out: Brain drug concentration): 965 nM | Kp at 0.5 h ([5]; SD, brain/plasma, iv, 0.5 hour, read-out: Brain-to-blood ratio): 7.8 | Kp at 2 h ([5]; SD, brain/plasma, iv, 2 hours, read-out: Brain-to-blood ratio): 6.9 | concentration at 0.5 h ([5]; SD, plasma, iv, 0.5 hour, read-out: Plasma drug concentration): 362 nM | concentration at 2 h ([5]; SD, plasma, iv, 2 hours, read-out: Plasma drug concentration): 141 nM | Brain drug concentration (nmol/L) ([5]; 4 hours): BQL | Plasma drug concentration (nmol/L) ([5]; 4 hours): BQL | EC50 [6]: > 10000 nM
Structure (SMILES): C[C@@H]1CN(C(=O)[C@@H]2CN(C3CCOCC3)C[C@H]2c2ccc(F)cc2F)C[C@H](C)N1c1ccc(F)cc1 (single isomer, unassigned) [Compound 7]
